For five molecules, Kd and IC50 results are on record in US20130079345A1, “[…] ACTIVE DISUBSTITUTED TRIAZINE DERIVATIVES” (BAYER INTELLECTUAL PROPERTY GMBH, priority 2010, published 2013).

In general, IC50 refers to the concentration that gives 50% inhibition.

In one assay the target is T1, CDK8/Cyclin C (Homo sapiens, UniProt P49336).
T1 construct: purchased Invitrogen
As to the kind of experiment: LanthaScreen Eu Kinase Binding Assay, CDK8. Conditions: tracer 236, read-out: Affinity (Kd) CDK8. On the procedure:
(§1) This protocol describes how the LanthaScreen Eu Kinase Binding Assay was performed to determine dissociation constants (Kd) of compounds of general formula (I) and CDK/Cyclin complexes. The principle behind this assay is based upon the binding and displacement of an Alexa Fluor 647-labeled tracer, which binds to the active site of kinases. Binding of the tracer to the kinase is detected using a Eu-labeled antibody. Simultaneous binding of both the tracer and antibody to the kinase gives rise to a FRET-signal. Binding of an inhibitor to the kinase competes for binding with the tracer, resulting in a loss of FRET.
(§2) The compounds of general formula (I) summarized in Table 1 were diluted from a 10 mM DMSO stock solution 1:10 in a total volume of 15 μL DMSO. This compound predilution was then serial diluted 1:3 over 8 steps in DMSO and briefly spun down. Each compound solution was now diluted 1:33.33 in kinase buffer (HEPES: 20 mM, pH: 8.0; MgCl2: 10 mM; DTT: 1 mM; Brij-35: 0.01%), mixed thoroughly and spun down. For every sample, 5 μL of the diluted compound were mixed with 5 μL tracer working solution (e.g. 60 nM tracer 236 in kinase buffer for CDK2/Cyclin A) and 5 μL CDK/Cyclin/Anti-GST-AB-working solution (e.g. 15 nM CDK2/Cyclin A, 1:250 dilution of Anti-GST-AB in kinase buffer) in a well of a small volume 384 well plate (Corning Incorporated, Corning, N.Y., USA; order no. 3673). […] For positive controls, in each well 5 μL of DMSO working solution (3% DMSO diluted in kinase buffer) was mixed with 5 μL CDK/Cyclin/Anti-GST-AB-working solution: (e.g. 15 nM CDK2/Cyclin A, 1:250 dilution of Anti-GST-AB in kinase buffer) and 5 μL Tracer working solution (e.g. 60 nM Tracer 236 in kinase buffer for CDK2/Cyclin A). Positive and negative controls were calculated from at least 8 different sample wells. The 384 well plates were mixed in a Teleshaker plate mixer (Beckman Coulter, Brea, Calif., USA) at 2000 rpm for 40 sec, and incubated for 1 h at room temperature before reading. The FRET signal was measured at 340 nm excitation, 665 nm and 615 nm emission (for the kinase tracer and LanthaScreen Eu-AB, respectively) with an Envision spectrophotometer (Perkin Elmer, Waltham, Mass., USA) with 50 μs delay and 300 μs integration time. Kd values were determined from the sigmoidal dose response curves with the software Quattro Workflow (Quattro GmbH, Munich, Germany).

The next assay concerns the target T2, CDK9/Cyclin K (Homo sapiens, UniProt P50750).
T2 construct: purchased Invitrogen
As to the kind of experiment: LanthaScreen Eu Kinase Binding Assay, CDK9/Cyclin K. Conditions: tracer 236, read-out: Affinity (Kd) CDK9/Cyclin K. How it is done: as §1, §2
A general note: In TR-FRET formats the signal depends on donor and acceptor labels being close together.

For assay [1], the target named is T3, CDK7/CyclinH/Mat1 (Homo sapiens, UniProt P50613).
T3 construct: purchased Carna Biosciences
T3 sequence (P50613 whole entry): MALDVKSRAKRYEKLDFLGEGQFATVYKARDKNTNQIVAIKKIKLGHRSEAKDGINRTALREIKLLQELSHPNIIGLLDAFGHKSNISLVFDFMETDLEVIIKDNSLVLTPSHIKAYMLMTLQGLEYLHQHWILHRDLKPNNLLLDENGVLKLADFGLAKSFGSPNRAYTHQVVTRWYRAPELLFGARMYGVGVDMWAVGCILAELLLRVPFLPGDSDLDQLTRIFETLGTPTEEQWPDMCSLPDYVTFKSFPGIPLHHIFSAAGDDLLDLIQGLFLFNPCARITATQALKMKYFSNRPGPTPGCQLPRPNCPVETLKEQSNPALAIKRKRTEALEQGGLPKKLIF
T3 sequence (P51946 whole entry partner): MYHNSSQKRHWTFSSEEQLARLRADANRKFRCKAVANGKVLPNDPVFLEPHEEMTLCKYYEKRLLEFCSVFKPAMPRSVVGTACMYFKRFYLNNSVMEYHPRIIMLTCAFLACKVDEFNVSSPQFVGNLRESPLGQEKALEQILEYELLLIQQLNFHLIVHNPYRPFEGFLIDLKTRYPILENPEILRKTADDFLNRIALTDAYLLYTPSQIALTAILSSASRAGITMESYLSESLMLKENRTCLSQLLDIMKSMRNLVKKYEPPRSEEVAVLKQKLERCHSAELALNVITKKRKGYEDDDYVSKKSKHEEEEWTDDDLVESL
T3 sequence (P51948 whole entry partner): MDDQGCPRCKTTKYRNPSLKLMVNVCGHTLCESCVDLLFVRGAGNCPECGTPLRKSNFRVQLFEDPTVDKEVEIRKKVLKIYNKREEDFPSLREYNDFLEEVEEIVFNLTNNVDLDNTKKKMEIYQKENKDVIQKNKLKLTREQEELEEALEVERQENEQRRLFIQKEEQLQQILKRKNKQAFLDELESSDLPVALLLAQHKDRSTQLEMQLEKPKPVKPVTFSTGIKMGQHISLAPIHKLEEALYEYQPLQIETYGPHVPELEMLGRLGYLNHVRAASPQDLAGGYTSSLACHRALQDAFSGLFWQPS
As to the kind of experiment: LanthaScreen Eu Kinase Binding Assay, CDK7. As to conditions: tracer 236, read-out: Affinity (Kd) CDK7. On the procedure:
as §1, §2

Another assay addresses T4, CDK9/Cyclin T1 (Homo sapiens, UniProt P50750).
T4 construct: purchased Invitrogen
Description: LanthaScreen Eu Kinase Binding Assay, CDK9/Cyclin T1. As to conditions: tracer 236, read-out: Affinity (Kd) CDK9/Cyclin T1. On the procedure:
as §1, §2

Another assay has as its target T5, CDK9 (Homo sapiens, UniProt P50750).
T5 construct: purchased Invitrogen
Description: Lance Ultra KinaSelect Assay, CDK9. The class given is biochemical. As to conditions: read-out: Inhibition (IC50) CDK9. How it is done: (§3) This protocol describes how the Lance Ultra KinaSelect Assay was performed to determine half maximal inhibitory concentration (IC50) of compounds of general formula (I) and CDK/Cyclin complexes. The principle behind this enzymatic assay is based upon the phosphorylation of the ULight-Peptide Substrat. It is detected by using a specific EU-labeled anti-phospho peptide antibody. The binding of the Eu-labeled anti-phospho peptide antibody to the phosphorylated U Light labeled peptide gives rise to a FRET-signal. Binding of an inhibitor to the kinase prevents phosphorylation of the ULight-MBP Substrat, resulting in a loss of FRET.
(§4) The compounds of general formula (I) summarized in Table 5 were diluted from a 10 mM DMSO stock solution 1:10 in a total volume of 15 μL DMSO. This compound predilution was then serial diluted 1:3 over 8 steps in DMSO and briefly spun down. Each compound solution was now diluted 1:20 in Enzymatic Buffer (HEPES: 50 mM, pH: 7.5; MgCl2: 10 mM; EGTA: 1 mM; DTT: 2 mM; Tween-20: 0.01%), mixed thoroughly and spun down. For every sample, 2 μL of the diluted compound were mixed with 6 μL CDK/Cyclin/Substrat solution and […] in a well of a small volume 384 well plate (Corning Incorporated, Corning, N.Y., USA; order no. 3673). […] For positive controls, in each well 2 μL of DMSO solution (1% final DMSO assay concentration) was mixed with 6 μL CDK/Cyclin/Substrat (appropriate final concentration see Table 3) and 2 μL Tracer ATP solution (appropriate final concentration see Table 3). Positive and negative controls were calculated from at least 8 different sample wells. The 384 well plates were mixed in a Teleshaker plate mixer (Beckman Coulter, Brea, Calif., USA) at 2000 rpm for 40 sec, and incubated for 1 h at room temperature. Before reading, 10 μL detection buffer (Lance Detection Buffer 1×; EDTA: […]; Eu-Anti-P-MBP: see Table 3) was added. The FRET signal was measured at 340 nm excitation, 665 nm and 615 nm emission (for the kinase tracer and LanthaScreen Eu-AB, respectively) with an Envision spectrophotometer (Perkin Elmer, Waltham, Mass., USA) with 50 μs delay and 300 μs integration time. IC50 values were determined from the sigmoidal dose response curves with the software Quattro Workflow (Quattro GmbH, Munich, Germany).

For assay [2], the target named is T6, CDK2/CyclinA (Homo sapiens, UniProt P24941).
T6 construct: purchased Proqinase
Description: Lance Ultra KinaSelect Assay, CDK2. The class given is biochemical. As to conditions: ATP 3 μM, read-out: Inhibition (IC50) CDK2. On the procedure: as §3, §4

Assay [3] concerns the target T3, CDK7/CyclinH/Mat1. As to the kind of experiment: Lance Ultra KinaSelect Assay, CDK7. The class given is biochemical. Conditions: ATP 25 μM, read-out: Inhibition (IC50) CDK7. How it is done: as §3, §4
Assay [4] addresses T6, CDK2/CyclinA. Description: LanthaScreen Eu Kinase Binding Assay, CDK2. Conditions: tracer 236, read-out: Affinity (Kd) CDK2. On the procedure:
as §1, §2

Assay [5] concerns RNA Polymerase II Ser2 phosphorylation (cellular CDK9 activity) in HCT-116 cells. Description: RNA-Polymerase II Ser2 cellular phosphorylation assay. Conditions: Homo sapiens, normalized with tubulin. The class given is cell-based. On the procedure: HCT-116 cells (DSMZ, Braunschweig, Germany) were maintained in Mc Coy's cell culture medium+glutamine (PAN Biotech GmbH, Aidenbach, Germany) supplemented with 10% fetal calf serum (PAA Laboratories GmbH, Pasching, Austria) and grown at 37° C., 5% CO2. For the cellular phosphorylation assay, cells were seeded with 2×10^5 cells/well/1 ml in 24-well plates (Greiner Bio—One, Frickenhausen, Germany; catalog #662160). The compounds of general formula (I) summarized in Table 6 were diluted from a 10 mM DMSO stock solution 1:10 in a total volume of 15 μL DMSO. After overnight incubation at 37° C./5% CO2, 1.5 μL of a compound diluted in DMSO was added to each sample well. Wells with cells and 0.15% DMSO in culture medium were used as positive controls, wells without cells and 0.15% DMSO in culture medium were used as negative controls. The cells were incubated with the compounds for 72 h at 37° C./5% CO2. Before lysis, cells were washed with phosphate buffered saline. Phosphorylation of RNA Polymerase II Ser2 and tubulin levels for normalization were analyzed afterwards with the Multi-Array technology (Meso Scale Discovery, Gaithersburg, Md., USA), a combination of antibody coupled electrochemiluminescence detection and patterned arrays. Manufacturer's instructions were followed and all solutions were purchased from Meso Scale Discovery. In brief, cells were lysed by 30 min incubation in CLB1 lysis buffer (Zeptosens, Witterswil, Switzerland; 60 μL per well), and supernatants were cleared by centrifugation. For analysis of RNA Polymerase II Ser2-phosphorylation, lysates were diluted 1:50 with Meso Scale Lysis Buffer supplemented with phosphatase- and protease-inhibitors, and 25 µL of each sample was pipetted in a well of a MSD Multi-Array 96-Well Plate Sector® Imager High Bind Plate (Meso Scale Discovery; catalog #L15XB-3/L11XB-3), and incubated for 2 h at room temperature. […] Meso Scale Tris Wash Buffer supplemented with 3% w/v Meso Scale Blocker A were added per well, then plates were sealed and incubated 1 h with vigorous shaking. Plates were washed with 1× Tris Wash Buffer (10× Meso Scale Wash Buffer diluted 1:10 in destilled water), 25 μL of antibody solution was added (CTD7 3E10 antibody from Helmholtz Zentrum Munich, Germany, diluted 1:100 in Meso Scale Tris Wash Buffer supplemented with 1% w/v Meso Scale Blocker A), and plates were washed three times in 1× Tris Wash Buffer. 25 μL of MSD® SULFO-TAG™ Goat-Anti-Rat-Antibody (Meso Scale Discovery, catalog #R^32AH-1, diluted 1:125 in Tris Wash Buffer with 1% (w/v) blocker A) were added per well, plates were sealed and incubated with vigorous shaking for 1 h at room temperature. Finally, plates were washed three times with Tris Wash Buffer, 150 μl 2× Read Buffer (Meso Scale Discovery) were added per well and plates were analyzed immediately in a Sector Imager from Meso Scale Discovery. For determination of tubulin protein levels, samples were analyzed with the protocol for RNA Polymerase II Ser2-phosphorylation, with an anti-tubulin antibody (rabbit; BIODESIGN International, catalog #T59840R, diluted 1:100) and a MSD® SULFO-TAG™ […] (Meso Scale Discovery, catalog #R^32AH-1, diluted 1:125). RNA Polymerase II Ser2 phosphorylation was normalized with tubulin protein levels, and EC50 values were calculated with the software XLFit (IDBS, Guildford, UK) from 2-fold dilution series comprising 6 concentrations in duplicates.

For assay [6], the system named is NF-kappaB reporter gene activation in HEK293 cells. As to the kind of experiment: NF-kappaB reporter assay. The class given is cell-based. Conditions: Homo sapiens, 20 ng/ml TNF alpha, 5 h. How it is done: Cells were maintained in RPMI cell culture medium+glutamine (PAN Biotech GmbH, Aidenbach, Germany) supplemented with 10% fetal calf serum (PAA Laboratories GmbH, Pasching, Austria) and grown at 37° C., 5% CO2. HEK293 cells grown to 50% confluence were transfected with the Amaxa® Cell Line Nucleofector® Kit V (Lonza, Basel, Switzerland, catalog #VCA-1003). Transfections were performed according to manufacturer's optimized protocol for transfection of HEK293 cells. In brief, 2×10^5 cells were transfected with 5 μg highly purified plasmid DNA. Cells were transfected with a NF-kappa B reporter plasmid (pNFkBluc), pTALluc for control, or pMAXGFP for transfection control. After transfection, cells were taken up in 500 μL RPMI1640 cell culture medium, incubated for 1 h at 37° C., and 4.5 ml DMEM without phenol red were added per transfection. Transfected cells were seeded in 96 well plates (Greiner Bio-One, Frickenhausen, Germany, catalog #655098) with 100 μL cell suspension per well and incubated for 48 h. To each well, 100 μL DMEM with 2× concentrated compound diluted from 10 mM DMSO stocks, or 100 μL DMEM with 0.4% DMSO for control wells, was added. The compounds of general formula (I) summarized in Table 6 were used in this assay. Cells were stimulated with 20 ng/ml TNF alpha, and plates were incubated for 5 h at 37° C./5% CO2. Cell culture supernatants were removed to leave 100 μl medium per well, followed by addition of 100 μl Bright Glo luciferase assay reagent (Promega, Madison, Wis., USA, catalog #E2620), and shaking for 5 minutes in the dark. Luminescence was measured with a Victor Photospectrometer (Perkin Elmer, Waltham, Mass., USA). […], values were calculated with the software Excel Fit (IDBS, Guildford, UK) from 2-fold dilution series comprising at least 10 concentrations in duplicates.
Background: In a reporter assay the amount or activity of a reporter protein is the signal.

T2 sequence (P50750 whole entry): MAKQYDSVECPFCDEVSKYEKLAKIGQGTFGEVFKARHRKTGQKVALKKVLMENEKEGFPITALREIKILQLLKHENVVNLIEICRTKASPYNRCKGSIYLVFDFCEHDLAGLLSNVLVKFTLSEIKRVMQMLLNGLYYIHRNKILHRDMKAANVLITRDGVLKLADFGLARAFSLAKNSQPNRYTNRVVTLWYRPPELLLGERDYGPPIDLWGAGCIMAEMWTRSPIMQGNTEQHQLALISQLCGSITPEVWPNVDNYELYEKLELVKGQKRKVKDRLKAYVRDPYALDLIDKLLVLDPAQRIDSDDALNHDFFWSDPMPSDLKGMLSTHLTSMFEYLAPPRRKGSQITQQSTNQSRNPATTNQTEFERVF
T2 sequence (O75909 whole entry partner): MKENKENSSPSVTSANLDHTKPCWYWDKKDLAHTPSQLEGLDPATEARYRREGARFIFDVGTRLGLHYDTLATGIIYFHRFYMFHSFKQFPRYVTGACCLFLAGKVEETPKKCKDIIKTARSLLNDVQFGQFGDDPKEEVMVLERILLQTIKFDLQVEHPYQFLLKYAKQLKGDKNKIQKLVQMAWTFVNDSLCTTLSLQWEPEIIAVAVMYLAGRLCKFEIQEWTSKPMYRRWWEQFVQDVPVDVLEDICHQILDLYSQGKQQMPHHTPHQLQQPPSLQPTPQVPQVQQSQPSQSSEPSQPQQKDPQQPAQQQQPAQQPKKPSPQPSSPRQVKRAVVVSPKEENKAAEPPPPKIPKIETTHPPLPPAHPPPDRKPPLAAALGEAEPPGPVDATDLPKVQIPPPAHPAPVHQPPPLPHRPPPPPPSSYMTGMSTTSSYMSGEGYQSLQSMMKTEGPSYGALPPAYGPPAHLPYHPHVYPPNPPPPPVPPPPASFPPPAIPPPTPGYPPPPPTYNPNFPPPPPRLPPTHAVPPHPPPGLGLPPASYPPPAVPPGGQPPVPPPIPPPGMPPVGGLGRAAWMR
T4 sequence (P50750 whole entry): as the sequence (P50750 whole entry) above
T4 sequence (O60563 whole entry partner): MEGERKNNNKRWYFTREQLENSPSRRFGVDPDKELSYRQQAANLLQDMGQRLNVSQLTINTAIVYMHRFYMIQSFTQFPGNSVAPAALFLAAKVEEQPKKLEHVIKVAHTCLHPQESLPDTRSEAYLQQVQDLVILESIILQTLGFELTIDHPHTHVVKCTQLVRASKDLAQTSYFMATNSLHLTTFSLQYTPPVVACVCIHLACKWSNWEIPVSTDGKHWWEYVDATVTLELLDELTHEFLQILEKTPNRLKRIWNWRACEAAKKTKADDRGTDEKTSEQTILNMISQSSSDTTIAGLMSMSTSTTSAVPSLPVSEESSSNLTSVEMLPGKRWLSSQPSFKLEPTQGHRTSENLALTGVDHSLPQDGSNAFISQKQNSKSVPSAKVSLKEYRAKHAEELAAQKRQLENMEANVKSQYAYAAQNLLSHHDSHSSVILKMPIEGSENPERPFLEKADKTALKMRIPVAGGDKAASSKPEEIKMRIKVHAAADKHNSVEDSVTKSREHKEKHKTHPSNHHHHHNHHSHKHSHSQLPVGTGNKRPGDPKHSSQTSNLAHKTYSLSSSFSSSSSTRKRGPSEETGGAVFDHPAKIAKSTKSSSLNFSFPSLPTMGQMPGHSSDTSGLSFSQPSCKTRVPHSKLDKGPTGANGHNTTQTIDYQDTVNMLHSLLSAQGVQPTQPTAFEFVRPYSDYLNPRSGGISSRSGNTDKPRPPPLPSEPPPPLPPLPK
T1 sequence (P49336 whole entry): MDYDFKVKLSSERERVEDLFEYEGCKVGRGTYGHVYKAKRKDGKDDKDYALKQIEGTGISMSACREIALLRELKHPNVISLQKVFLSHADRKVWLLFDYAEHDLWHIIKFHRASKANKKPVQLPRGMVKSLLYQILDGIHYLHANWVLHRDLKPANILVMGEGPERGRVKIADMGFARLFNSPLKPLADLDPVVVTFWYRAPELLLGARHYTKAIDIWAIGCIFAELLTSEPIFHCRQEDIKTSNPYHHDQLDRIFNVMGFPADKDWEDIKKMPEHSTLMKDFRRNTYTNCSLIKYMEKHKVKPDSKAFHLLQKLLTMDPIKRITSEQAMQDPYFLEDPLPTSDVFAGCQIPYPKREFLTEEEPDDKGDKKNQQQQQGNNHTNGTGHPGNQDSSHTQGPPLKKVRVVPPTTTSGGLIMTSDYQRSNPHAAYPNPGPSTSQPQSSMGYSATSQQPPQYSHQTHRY
T1 sequence (P24863 whole entry partner): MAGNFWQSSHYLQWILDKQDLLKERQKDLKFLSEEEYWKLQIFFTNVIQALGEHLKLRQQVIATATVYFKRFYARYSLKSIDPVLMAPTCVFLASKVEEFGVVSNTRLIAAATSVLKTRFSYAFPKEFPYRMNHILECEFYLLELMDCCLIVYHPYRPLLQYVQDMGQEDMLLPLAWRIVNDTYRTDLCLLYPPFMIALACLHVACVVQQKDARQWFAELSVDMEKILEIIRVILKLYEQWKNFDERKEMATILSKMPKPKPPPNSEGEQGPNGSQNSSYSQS
T5 sequence (P50750 whole entry): as the sequence (P50750 whole entry) above

Regarding `COc1ccc(Cl)cc1-c1ncnc(Nc2cccc(CS(N)(=O)=O)c2)n1` [Compound B7, 3-[(4-(5-Chloro-2-methoxyphenyl)-1,3,5-triazin-2-yl)amino]benzenemethanesulfonamide], the Kd on CDK8/Cyclin C is greater than 10000 nM; at CDK9/Cyclin K, 101 nM; on CDK7/CyclinH/Mat1 [1] it was greater than 10000 nM; at CDK9/Cyclin T1, 55 nM.
In the case of `COc1ccccc1-c1ncnc(Nc2ccc(CS(N)(=O)=O)cc2)n1` [Compound T1, 4-[(4-(2-Methoxyphenyl)-1,3,5-triazin-2-yl)amino]benzenemethanesulfonamide], the IC50 was 190 nM on CDK9, 259 nM on CDK2/CyclinA [2] and greater than 10000 nM at CDK7/CyclinH/Mat1 [3]. Moreover, the Kd on CDK7/CyclinH/Mat1 [1] was greater than 10000 nM; on CDK2/CyclinA [4], 237 nM; at CDK9/Cyclin T1, 43.7 nM.
Turning to `Nc1ccc(-c2ncnc(Nc3cccc(CS(N)(=O)=O)c3)n2)cn1` [Compound B23, 3-[(4-(6-Aminopyridin-3-yl)-1,3,5-triazin-2-yl)amino]benzenemethanesulfonamide], the IC50 in assay [5] and in [6] was greater than 30000 nM in each case. The values for the Kd on CDK9/Cyclin K, at CDK7/CyclinH/Mat1 [1] and at CDK9/Cyclin T1 were 26.2 nM, greater than 10000 nM and 99 nM, respectively.
Consider `COc1ccncc1-c1ncnc(Nc2cccc(CS(N)(=O)=O)c2)n1` [Compound B18, 3-[(4-(4-Methoxypyridin-3-yl)-1,3,5-triazin-2-yl)amino]benzenemethanesulfonamide], for which the Kd at CDK8/Cyclin C was 1760 nM; at CDK9/Cyclin K it was 302 nM; on CDK7/CyclinH/Mat1 [1], greater than 10000 nM; on CDK9/Cyclin T1 it was 104 nM.
On to `COc1ccccc1-c1ncnc(Nc2cccc(S(C)(=O)=O)c2)n1` [Compound S1, 4-(2-Methoxyphenyl)-N-(3-(methylsulfonyl)phenyl)-1,3,5-triazin-2-amine], for which the IC50 on CDK9 was 24.7 nM; on CDK2/CyclinA [2] it was 1770 nM; at CDK7/CyclinH/Mat1 [3], greater than 10000 nM. Further, the Kd is greater than 10000 nM at CDK7/CyclinH/Mat1 [1], 851 nM on CDK2/CyclinA [4] and 6.9 nM on CDK9/Cyclin T1.
